Data reported in patent US8815882B2, “Pyrazole aminopyrimidine derivatives as LRRK2 modulators” (Genentech, Inc., priority 2010, dated 2014).

Target: T1, LRRK2 (Homo sapiens, UniProt Q5S007, G2019S)
T1 construct: purchased Invitrogen PV4882 (lot 567054A)
Assay: In Vitro LRRK2 Assay (LabChip 3000, fluorescently-labeled peptide substrate, ATP)
Type: biochemical
Settings: read-out: LRRK2 Ki (KI), Table 8
In short: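 Read-out was LabChip capillary electrophoresis, resolving phospho- from non-phospho-peptide by fluorescence intensity. The kinase reaction combined enzyme, ATP, test compound and labeled peptide (4 μM working dilution) for 2 h in darkness before stop solution. Values were reported as Ki, from a tight-binding model with Et, S and Km, or as IC50 or percent inhibition.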

T1 sequence (Q5S007 whole entry G2019S): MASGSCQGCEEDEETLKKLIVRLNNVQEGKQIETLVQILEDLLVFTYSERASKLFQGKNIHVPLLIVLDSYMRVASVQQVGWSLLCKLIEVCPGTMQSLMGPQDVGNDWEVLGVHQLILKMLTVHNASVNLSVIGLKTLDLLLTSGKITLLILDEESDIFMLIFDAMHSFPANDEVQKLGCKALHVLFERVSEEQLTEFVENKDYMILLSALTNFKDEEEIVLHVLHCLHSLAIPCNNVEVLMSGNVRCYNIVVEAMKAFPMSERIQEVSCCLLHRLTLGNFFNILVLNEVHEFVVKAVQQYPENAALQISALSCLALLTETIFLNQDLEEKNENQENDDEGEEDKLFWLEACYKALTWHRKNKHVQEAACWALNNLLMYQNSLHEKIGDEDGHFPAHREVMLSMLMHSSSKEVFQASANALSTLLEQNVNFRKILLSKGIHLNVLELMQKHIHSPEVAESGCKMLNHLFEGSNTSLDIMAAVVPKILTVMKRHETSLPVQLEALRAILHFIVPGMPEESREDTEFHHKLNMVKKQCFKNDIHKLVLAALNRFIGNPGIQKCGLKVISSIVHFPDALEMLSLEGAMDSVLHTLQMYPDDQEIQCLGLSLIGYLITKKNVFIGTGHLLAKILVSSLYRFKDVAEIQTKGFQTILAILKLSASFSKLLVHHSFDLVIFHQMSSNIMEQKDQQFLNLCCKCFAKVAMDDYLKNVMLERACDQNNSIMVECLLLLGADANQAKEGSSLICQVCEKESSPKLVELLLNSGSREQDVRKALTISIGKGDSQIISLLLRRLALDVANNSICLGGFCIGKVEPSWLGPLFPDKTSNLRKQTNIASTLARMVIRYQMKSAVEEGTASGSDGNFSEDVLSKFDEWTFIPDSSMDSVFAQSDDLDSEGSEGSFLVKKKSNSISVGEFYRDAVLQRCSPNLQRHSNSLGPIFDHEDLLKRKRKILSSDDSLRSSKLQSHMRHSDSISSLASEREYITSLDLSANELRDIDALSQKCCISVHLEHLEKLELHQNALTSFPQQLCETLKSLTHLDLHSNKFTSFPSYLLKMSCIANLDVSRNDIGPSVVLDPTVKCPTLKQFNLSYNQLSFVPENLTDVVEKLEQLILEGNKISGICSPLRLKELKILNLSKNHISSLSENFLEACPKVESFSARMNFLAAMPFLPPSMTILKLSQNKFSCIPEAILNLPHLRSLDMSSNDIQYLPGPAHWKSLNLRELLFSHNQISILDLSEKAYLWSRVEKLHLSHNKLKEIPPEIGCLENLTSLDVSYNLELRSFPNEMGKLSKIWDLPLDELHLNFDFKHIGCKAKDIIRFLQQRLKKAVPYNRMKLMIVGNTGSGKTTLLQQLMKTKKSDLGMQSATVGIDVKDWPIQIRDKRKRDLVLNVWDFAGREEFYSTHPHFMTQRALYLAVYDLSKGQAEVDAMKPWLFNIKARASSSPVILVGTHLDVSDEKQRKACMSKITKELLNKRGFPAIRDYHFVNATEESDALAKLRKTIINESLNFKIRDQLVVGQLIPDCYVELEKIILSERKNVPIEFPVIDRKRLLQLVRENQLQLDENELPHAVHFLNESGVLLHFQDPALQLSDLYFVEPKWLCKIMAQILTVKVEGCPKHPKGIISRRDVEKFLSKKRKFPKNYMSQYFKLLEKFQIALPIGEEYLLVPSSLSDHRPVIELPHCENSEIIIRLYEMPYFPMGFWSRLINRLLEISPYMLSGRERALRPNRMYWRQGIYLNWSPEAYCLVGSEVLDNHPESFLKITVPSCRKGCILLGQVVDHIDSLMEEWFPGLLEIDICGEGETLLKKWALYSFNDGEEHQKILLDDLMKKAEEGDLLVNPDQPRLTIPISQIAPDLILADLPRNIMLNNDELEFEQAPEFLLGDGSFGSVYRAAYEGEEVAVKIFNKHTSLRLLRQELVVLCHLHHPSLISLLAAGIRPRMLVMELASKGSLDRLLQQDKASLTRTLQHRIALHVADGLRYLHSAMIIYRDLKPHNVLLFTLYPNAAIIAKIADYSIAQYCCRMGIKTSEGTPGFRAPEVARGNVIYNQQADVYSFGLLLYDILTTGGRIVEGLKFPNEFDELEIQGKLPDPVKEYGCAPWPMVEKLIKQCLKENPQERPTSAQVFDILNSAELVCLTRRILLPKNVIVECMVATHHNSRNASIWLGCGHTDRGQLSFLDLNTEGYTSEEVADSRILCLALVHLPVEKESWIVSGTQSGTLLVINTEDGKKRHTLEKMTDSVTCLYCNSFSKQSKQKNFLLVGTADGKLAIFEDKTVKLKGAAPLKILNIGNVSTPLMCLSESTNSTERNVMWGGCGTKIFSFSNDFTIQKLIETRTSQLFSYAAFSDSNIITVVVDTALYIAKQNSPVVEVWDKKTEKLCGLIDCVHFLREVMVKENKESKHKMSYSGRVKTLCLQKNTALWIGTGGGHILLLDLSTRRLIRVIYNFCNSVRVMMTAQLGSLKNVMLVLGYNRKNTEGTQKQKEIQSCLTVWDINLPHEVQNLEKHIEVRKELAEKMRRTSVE

| Ki [nM] | SMILES |
| --- | --- |
| 1.2 | CNc1nc(Nc2cnn(C3CN(C(C)C)C3)c2C)ncc1C(F)(F)F [Example 278, N2-[1-(1-Isopropyl-azetidin-3-yl)-5-methyl-1H-pyrazol-4-yl]-N4-methyl-5-trifluoromethyl-pyrimidine-2,4-diamine] |
| 4.7 | CCNc1nc(Nc2cnn(S(=O)(=O)C(C)C)c2C)ncc1C(F)(F)F [Example 279, N4-Ethyl-N2-[5-methyl-1-(propane-2-sulfonyl)-1H-pyrazol-4-yl]-5-trifluoromethyl-pyrimidine-2,4-diamine] |
| 3.6 | CCNc1nc(Nc2cnn(C)c2C2CCC2)ncc1C(F)(F)F [Example 280, N2-(5-Cyclobutyl-1-methyl-1H-pyrazol-4-yl)-N4-ethyl-5-trifluoromethyl-pyrimidine-2,4-diamine] |
| 4.2 | CNc1nc(Nc2cnn(C3CCN(CCF)CC3)c2C)ncc1C(F)(F)F [Example 284, N2-{1-[1-(2-Fluoro-ethyl)-piperidin-4-yl]-5-methyl-1H-pyrazol-4-yl}-N4-methyl-5-trifluoromethyl-pyrimidine-2,4-diamine] |
| 7.2 | CCS(=O)(=O)n1ncc(Nc2ncc(C(F)(F)F)c(NC)n2)c1C [Example 287, N2-(1-Ethanesulfonyl-5-methyl-1H-pyrazol-4-yl)-N4-methyl-5-trifluoromethyl-pyrimidine-2,4-diamine] |
| 7.7 | CNc1nc(Nc2cnn(CC(C)(C)N3CCOCC3)c2C)ncc1C(F)(F)F [Example 288, N4-Methyl-N2-[5-methyl-1-(2-methyl-2-morpholin-4-yl-propyl)-1H-pyrazol-4-yl]-5-trifluoromethyl-pyrimidine-2,4-diamine] |
| 0.6 | CNc1nc(Nc2cn(Cc3cccc(C)n3)nc2C)ncc1C(F)(F)F [Example 293, N4-Methyl-N2-[3-methyl-1-(6-methyl-pyridin-2-ylmethyl)-1H-pyrazol-4-yl]-5-trifluoromethyl-pyrimidine-2,4-diamine] |
| 0.4 | CCNc1nc(Nc2cnn(CCOC)c2C)ncc1C(F)(F)F [Example 295, N4-Ethyl-N2-[1-(2-methoxy-ethyl)-5-methyl-1H-pyrazol-4-yl]-5-trifluoromethyl-pyrimidine-2,4-diamine] |
| 2.3 | CCNc1nc(Nc2cnn(CC(C)(C)O)c2C)ncc1C(F)(F)F [Example 296, 1-[4-(4-Ethylamino-5-trifluoromethyl-pyrimidin-2-ylamino)-5-methyl-pyrazol-1-yl]-2-methyl-propan-2-ol] |
| 0.4 | Cc1nn(S(C)(=O)=O)cc1Nc1ncc(C(F)(F)F)c(NC2CC2)n1 [Example 300, N4-Cyclopropyl-N2-(1-methanesulfonyl-3-methyl-1H-pyrazol-4-yl)-5-trifluoromethyl-pyrimidine-2,4-diamine] |
| 2.1 | Cc1c(Nc2ncc(C(F)(F)F)c(NC3CC3)n2)cnn1S(C)(=O)=O [Example 301, N4-Cyclopropyl-N2-(1-methanesulfonyl-5-methyl-1H-pyrazol-4-yl)-5-trifluoromethyl-pyrimidine-2,4-diamine] |
| 1.3 | CCNc1nc(Nc2cn(C(C)(C)C(=O)NC)nc2C)ncc1C(F)(F)F [Example 303, 2-[4-(4-Ethylamino-5-trifluoromethyl-pyrimidin-2-ylamino)-3-methyl-pyrazol-1-yl]-N-methyl-isobutyramide] |

Continued, compound first:

| SMILES | Ki [nM] |
| --- | --- |
| CNc1nc(Nc2cn([C@H]3CCN(C4COC4)C3)nc2C)ncc1C(F)(F)F [Example 276, N4-Methyl-N2-[3-methyl-1-((S)-1-oxetan-3-yl-pyrrolidin-3-yl)-1H-pyrazol-4-yl]-5-trifluoromethyl-pyrimidine-2,4-diamine] | 3.9 |
| CCNc1nc(Nc2cn(C)nc2C2CCC2)ncc1C(F)(F)F [Example 281, N2-(3-Cyclobutyl-1-methyl-1H-pyrazol-4-yl)-N4-ethyl-5-trifluoromethyl-pyrimidine-2,4-diamine] | 1.3 |
| CCNc1nc(Nc2cn(C3CCN(CCOC)CC3)nc2C)ncc1C(F)(F)F [Example 282, N4-Ethyl-N2-{1-[1-(2-methoxy-ethyl)-piperidin-4-yl]-3-methyl-1H-pyrazol-4-yl}-5-trifluoromethyl-pyrimidine-2,4-diamine] | 5.4 |
| CCNc1nc(Nc2cnn(C3CCN(CCOC)CC3)c2C)ncc1C(F)(F)F [Example 283, N4-Ethyl-N2-{1-[1-(2-methoxy-ethyl)-piperidin-4-yl]-5-methyl-1H-pyrazol-4-yl}-5-trifluoromethyl-pyrimidine-2,4-diamine] | 2 |
| CNc1nc(Nc2cn(C3CCN(CCF)CC3)nc2C)ncc1C(F)(F)F [Example 285, N2-{1-[1-(2-Fluoro-ethyl)-piperidin-4-yl]-3-methyl-1H-pyrazol-4-yl}-N4-methyl-5-trifluoromethyl-pyrimidine-2,4-diamine] | 28.3 |
| CNc1nc(Nc2cn(Cc3cccnc3)nc2C)ncc1C(F)(F)F [Example 289, N4-Methyl-N2-(3-methyl-1-pyridin-3-ylmethyl-1H-pyrazol-4-yl)-5-trifluoromethyl-pyrimidine-2,4-diamine] | 25 |
| COc1nc(Nc2cnn(C3CCN(CCF)CC3)c2C)ncc1Cl [Example 292, (5-Chloro-4-methoxy-pyrimidin-2-yl)-{1-[1-(2-fluoro-ethyl)-piperidin-4-yl]-5-methyl-1H-pyrazol-4-yl}-amine] | 4.2 |
| CCNc1nc(Nc2cn(CCOC)nc2C)ncc1C(F)(F)F [Example 294, N4-Ethyl-N2-[1-(2-methoxy-ethyl)-3-methyl-1H-pyrazol-4-yl]-5-trifluoromethyl-pyrimidine-2,4-diamine] | 1.1 |
| CCNc1nc(Nc2cn(CC(C)(C)O)nc2C)ncc1C(F)(F)F [Example 297, 1-[4-(4-Ethylamino-5-trifluoromethyl-pyrimidin-2-ylamino)-3-methyl-pyrazol-1-yl]-2-methyl-propan-2-ol] | 2.1 |
| CCNc1nc(Nc2cn(C(C)(C)CN3CCOCC3)nc2C)ncc1C(F)(F)F [Example 298, N2-[1-(1,1-Dimethyl-2-morpholin-4-yl-ethyl)-3-methyl-1H-pyrazol-4-yl]-N4-ethyl-5-trifluoromethyl-pyrimidine-2,4-diamine] | 50.6 |
| CNc1nc(Nc2cn(C(C)(C)CN3CCOCC3)nc2C)ncc1C(F)(F)F [Example 299, N2-[1-(1,1-Dimethyl-2-morpholin-4-yl-ethyl)-3-methyl-1H-pyrazol-4-yl]-N4-methyl-5-trifluoromethyl-pyrimidine-2,4-diamine] | 22.8 |
| CNc1nc(Nc2cn(Cc3ncccn3)nc2C)ncc1C(F)(F)F [Example 304, N4-Methyl-N2-(3-methyl-1-pyrimidin-2-ylmethyl-1H-pyrazol-4-yl)-5-trifluoromethyl-pyrimidine-2,4-diamine] | 5.1 |
| CNc1nc(Nc2cnn(C3CCN(C4COC4)CC3F)c2Cl)ncc1C(F)(F)F (centres unmarked) [Example 305, N2-[5-Chloro-1-(3-fluoro-1-oxetan-3-yl-piperidin-4-yl)-1H-pyrazol-4-yl]-N4-methyl-5-trifluoromethyl-pyrimidine-2,4-diamine] | 2.2 |
| CCNc1nc(Nc2cnn(C3CCN(C4COC4)CC3F)c2Cl)ncc1C(F)(F)F (centres unmarked) [Example 306, N2-[5-Chloro-1-(3-fluoro-1-oxetan-3-yl-piperidin-4-yl)-1H-pyrazol-4-yl]-N4-ethyl-5-trifluoromethyl-pyrimidine-2,4-diamine] | 0.6 |
